Test results: patent US12280026B2, “Use of repirinast in the prophylaxis or treatment of renal fibrosis or kidney disease” (ALGERNON PHARMACEUTICALS INC., priority 2018, dated 2025)
Entries after “also recorded” stand apart in the source; their conditions may differ. Marks after values point to notes of the source that are not given here.

Legend:
[1] = Example 2: UUO mice, mean body weight change following surgery; type: in vivo, C57BL/6 mice; settings: for Mean Body Weight Change Following Surgery, Day 1 / Mean Body Weight Change Following Surgery, Day 4 / Mean Body Weight Change Following Surgery, Day 7 / Mean Body Weight Change Following Surgery, Day 10 / Mean Body Weight Change Following Surgery, Day 14: UUO, female C57BL/6 mice, PO QD days 1-14; for Body weight course after surgery, in words: Example 2
Procedure: (§1) In this example, healthy young female C57BL/6 mice were used for the study. At the commencement of the study, mice were between 9-12 weeks of age, weighing 23-25 g. All the mice were obtained from Charles River Laboratories.
(§2) The mice were maintained in a controlled environment with a temp 70-72° F., humidity 30-70%, with a photo cycle of 12 hours of light and 12 hours of dark. They were provided with Harlan Teklad 2018 standard maintenance mouse chow diet and drinking water ad libitium.
(§3) After five days of acclimatization, the mice were grouped according to their body weight. There were ten groups of ten mice each. Nine groups of ten mice each underwent UUO as described above and the other group of ten mice underwent a sham procedure to serve as a no-surgery control.
(§4) Following surgery, the mice were divided into 10 individual study groups of 10 mice each and, following post-surgical recovery, administered a once-daily oral treatment for 14 days. The mice in 8 of the 10 study groups had all received the UUO surgical ligation and were treated individually with a distinct pharmacologic compound as set out in Table 6. The mice in 2 of the 10 study groups were treated individually with a pharmaceutically acceptable vehicle with no active ingredient. The pharmaceutically acceptable vehicle in all groups was 0.5% carboxymethyl cellulose (CMC). All mice were sacrificed with CO2 on post-surgical day 15.
(§5) The dose selected for the animal studies was determined by taking the maximum known human daily dose, dividing by the average weight of an adult (˜60-70 kg) to get a human mg/kg dose. That number was multiplied by 12 to convert to a mouse dose based on conventional dosing tables. See Nair and Jacob, J Basic Clin Pharm March 2016-May 2016, 7(2):27-31.
Body weight: The body weights were measured on days 1, 4, 7, 10 and 14 using a laboratory balance.
Body weights were measured on post-surgical days 1, 4, 7, 10 and 14 as previously described. The mean body weight change of each study group was calculated using the body weight average of all mice in each study group.

[2] = test system: C57BL/6 mice with UUO surgical ligation; experiment: Example 2: UUO mice, kidney weight evaluation; type: in vivo; settings: for Excised Left Kidney: ligated kidney; for Right Kidney (g): unligated kidney
Procedure: as §1, §2, §3, §4, §5
Kidney weight: The UUO was then examined in situ to ensure that the surgical ligation ties remained patent. Both the ligated (UUO) and non-ligated kidneys were removed for analysis. Weights of both kidneys were measured using a laboratory balance.
The data are presented as the mean obtained from Microsoft Excel or GraphPad Prism version 5.00 for Windows (GraphPad Software, San Diego California USA). Data were analyzed using two-way ANOVA using Bonferroni and Tamhane post-tests. Differences between groups were considered significant at p<0.05.
Kidney Weight Evaluation: Kidney weight, which indicates functional and pathological changes in the kidney, was evaluated by measuring the weight of both the ligated (UUO) and non-ligated kidneys as previously described. The ligated and non-ligated kidney weights of each study group consisted of the respective kidney weight averages of all mice in each study group.

[3] = Example 1: UUO mice, mean body weight change following surgery; type: in vivo; settings: Example 1, mostly post-surgical day 14, male C57BL/6 mice, PO QD days 1-14, doses of Table 1
Procedure: Male 9-12 week old C57BL/6 mice of 23-25 grams body weight were used. All mice were acclimated for a minimum of 5 days prior to the start of the study and housed individually in microisolators throughout the study in a 12:12 light-dark cycle on a standard maintenance mouse chow diet (Harlan Teklad 2018) with food and water given ad libitum. Prior to surgery, all mice were weighed for baseline body weight.
The UUO surgical intervention was performed according to previously described methods known in the art (Le Meur Y et al., Macrophage accumulation at a site of renal inflammation is dependent on the M-CSF/c-fms pathway, J Leukocyte Biol., 72:530-537; 2002).
All mice were first anesthetized by intraperitoneal injection with a rodent cocktail (ketamine 10 mg/mL and Xyaline 1 mg/mL) in normal saline (10 μL/g body weight). Pedal reflex and movement of the vibrissae were used to determine the state of unconsciousness. A state of unconsciousness was confirmed after a period of about 5 minutes in all animals. All mice were then shaved on the left side of the abdomen. The shaved area was first swabbed with iodine and then swabbed with alcohol. A vertical incision was made through the skin with a #22 scalpel and the skin was then retracted. A further incision of about 2.5 cm was then made through the peritoneum avoiding any major blood vessels. The peritoneum was then retracted and the left kidney was exposed.
The left kidney was then brought to the surface by hooking the ureter directly beneath the kidney with sterile forceps and gently manipulating the kidney upward. The ureter was ligated at two points directly below the kidney with 5-0 surgical silk with excess suture cut away and discarded post-ligation. The kidney was then gently placed back to its correct anatomical position and the abdomen was lavaged with 1 mL sterile saline to replenish fluid loss. The peritoneum and then skin were sutured with 5-0 Mersilene, and the incision site was gently wiped with iodine. All mice were then placed individually in clean cages that were set on top of a thermal blanket until recovery at about 30-60 minutes later. In some examples, sham surgery was performed as a control by following all steps of the UUO surgical intervention procedure except ligation.
Following surgery, the mice were divided into 14 individual study groups of 8 mice each and, following post-surgical recovery, administered a once-daily oral treatment for 14 days. The mice in 12 of the 14 study groups (hereafter known as “treatment groups”) had all received the UUO surgical ligation and were treated individually with a distinct pharmacologic compound as set out in Table 1. The mice in 2 of the 14 study groups were treated individually with a pharmaceutically acceptable vehicle with no active ingredient. The pharmaceutically acceptable vehicle in all groups was 0.5% carboxymethyl cellulose (CMC). All mice were sacrificed with CO2 on post-surgical day 15.
The dose selected for the animal studies was determined by taking the maximum known human daily dose, dividing by the average weight of an adult (˜60-70 kg) to get a human mg/kg dose. […]
Body weight: The body weights were measured on days 1, 2, 5, 8, 10 and 14 using a laboratory balance.
Body weights were measured on post-surgical days 1, 2, 5, 8, 10 and 14 as previously described. The mean body weight change of each study group was calculated using the body weight average of all mice in each study group.

[4] = mg/kg: Telmisartan 3, Bemithyl 200, Repirinast 30, Telmisartan+Bemithyl 3+200, Telmisartan+Repirinast 3+30, Cenicriviroc 40, Bromantane 40
[5] = mg/kg PO QD: Repirinast 30, Bemithyl 200, Bromantane 40, Telmisartan+Bemithyl 3+200
[6] = ligated kidney drained, group mean, UUO, female C57BL/6 mice, PO QD days 1-14, mg/kg: Telmisartan 3, Bemithyl 200, Repirinast 30, Telmisartan+Bemithyl 3+200, Telmisartan+Repirinast 3+30, Cenicriviroc 40, Bromantane 40
[7] = group mean, UUO, female C57BL/6 mice, PO QD days 1-14, mg/kg: Telmisartan 3, Bemithyl 200, Repirinast 30, Telmisartan+Bemithyl 3+200, Telmisartan+Repirinast 3+30, Cenicriviroc 40, Bromantane 40
[8] = group mean, UUO, female C57BL/6 mice, PO QD days 1-14, Repirinast 90 mg/kg

| SMILES | Mean Body Weight Change Following Surgery, Day 1 [1, 4] [g] | Mean Body Weight Change Following Surgery, Day 4 [1, 4] [g] | Mean Body Weight Change Following Surgery, Day 7 [1, 4] [g] | Mean Body Weight Change Following Surgery, Day 10 [1, 4] [g] | Mean Body Weight Change Following Surgery, Day 14 [1, 4] [g] | Body weight course after surgery, in words [1, 5] | Drained Left Kidney [2, 6] [g] | Excised Left Kidney [2, 7] [g] | Right Kidney (g) [2, 7] | Mean body weight change, comparison with control groups, in words [3] | other results |
| --- | --- | --- | --- | --- | --- | --- | --- | --- | --- | --- | --- |
| CCSc1nc2ccccc2[nH]1 [Bemithyl, 2-Ethylsulfanyl-1H-benzoimidazole] | 0 | 0.16 | 0.16 | 0.36 | 0.54 | no initial decrease in body weight; also recorded: even greater than that of the sham surgery control group; also recorded: appeared to reverse the negative effects of UUO on body weight gain | 0.1565 | 0.398 | 0.1333* g | even greater than that of the sham surgery control group; also recorded: appeared to reverse the negative effects of UUO on body weight gain | Weight of the drained left kidney compared to the vehicle group, in words ([2]; Example 2, Telmisartan 3 + Repirinast 30 mg/kg, Bemithyl 200 mg/kg): a similar effect was observed |
| Brc1ccc(NC2C3CC4CC(C3)CC2C4)cc1 (stereo not drawn) [Bromantane, N-(4-Bromophenyl)adamantan-2-amine] | 0 | 0.11 | 0.36 | 0.15 | 0.55 | no initial decrease in body weight; also recorded: appeared to reverse the negative effects of UUO on body weight gain | 0.1775 | 0.3995 | 0.143* g | comparable to that of the surgery vehicle control group | – |
| Cc1ccc2c([nH]c(=O)c3c(=O)cc(C(=O)OCCC(C)C)oc32)c1C [Repirinast, 3-methylbutyl 7,8-dimethyl-4,5-dioxo-5,6-dihydro-4H-pyrano[3,2-c]quinoline-2-carboxylate] | 0 | 0.34 | 0.35 | 0.83 | 0.86 | no initial decrease in body weight | 0.1808 | 0.412 | 0.1468* g | greater decrease in body weight | Mean Body Weight Change Following Surgery, Day 1 ([1]; Repirinast 90 mg/kg): 0 g; Mean Body Weight Change Following Surgery, Day 4 ([1]; Repirinast 90 mg/kg): 0.31 g; Mean Body Weight Change Following Surgery, Day 7 ([1]; Repirinast 90 mg/kg): 0.60 g; Mean Body Weight Change Following Surgery, Day 10 ([1]; Repirinast 90 mg/kg): 0.86 g; Mean Body Weight Change Following Surgery, Day 14 ([1]; Repirinast 90 mg/kg): 1.08 g; Body weight course after surgery, in words ([1]; Repirinast 90 mg/kg PO QD): no initial decrease in body weight; also recorded: appeared to reverse the negative effects of UUO on body weight gain; Drained Left Kidney ([2]; ligated kidney drained, group mean, UUO, female C57BL/6 mice, PO QD days 1-14, Repirinast 90 mg/kg): 0.1648 g; Excised Left Kidney [2, 8]: 0.3681 g; Right Kidney (g) [2, 8]: 0.1378* g |
| CCCc1nc2c(C)cc(-c3nc4ccccc4n3C)cc2n1Cc1ccc(-c2ccccc2C(=O)O)cc1 [Telmisartan, 2-(4-{[4-Methyl-6-(1-methyl-1H-1,3-benzodiazol-2-yl)-2-propyl-1H-1,3-benzodiazol-1-yl]methyl}phenyl)benzoic acid] | 0 | -0.24 | 0.39 | 0.45 | 0.58 | – | – | 0.411 | 0.1263* g | – | Drained Left Kidney (g) [2, 6]: 0.1853* g |
